The values below come from patent US10759831B2, “Peptide compound, production method therefor, and use thereof” (iNtRON Biotechnology, Inc., priority 2014, dated 2020).

For assay [1], the system named is colon cancer cell line LS174T. In words: SRB cell viability assay, colon cancer cell line LS174T. The assay is classed as cell-based. To be noted: Homo sapiens, read-out: Growth inhibition value of cancer cell (IC50). As for the experimental part:
(§1) In detail, 190 μl of a cell suspension at a concentration of 3.5×10^4 cells/ml was inoculated in each well of a 96-well microplate. 0.8 μM, 4 μM, 20 μM, or 100 μM of Asperphenin was added to the cell culture medium, and cultured at a temperature of 37° C. for 72 hours under the condition of 5% CO2. After incubation, 50 μl of 50% (v/v) trichloroacetic acid solution (Sigma Aldrich) was added to each well, and then, incubated at a temperature of 4° C. for 30 minutes, to thereby fix the cells thereto. The fixed cells were washed with water five times, and then, dried in the air.
Next, 80 μl of a 0.4% (w/v) SRB aqueous solution (Sigma Aldrich) containing 1% (v/v) acetic acid (DUKSAN) was added to each well, incubated at room temperature for 1 hour to stain cells therein, and the stained cells washed with water and dried. The cells were dissolved by adding 200 μl of 10 mM Tris (pH 10.0) (Sigma Aldrich) to each well, and then, the number of living cells was calculated by measuring the absorbance thereof at 515 nm. […]
From the colon cancer cell lines HCT116 (ATCC), HCT15 (Korean Cell Line Bank), LS174T (Korean Cell Line Bank), RKO(ATCC), and SW480(ATCC), cell growth inhibition concentrations (IC50, μM) were calculated as described in Example 2-1, and the results are shown in Table 4. […]

Assay [2] concerns stomach cancer cell line SNU638. In words: SRB cell viability assay, stomach cancer cell line SNU638. It counts as cell-based. To be noted: Homo sapiens, SNU-638; SNU638, 72 hours; read-out: Cell growth inhibition concentration (IC50). As for the experimental part:
(§2) Regarding a lung cancer cell line A549 (Korean Cell line Bank), a colon cancer cell line HCT116 (ATCC), a stomach cancer cell line SNU638 (Korean Cell Line Bank), a liver cancer cell line SK-HEP-1 (Korean Cell line Bank), and a breast cancer cell line MDA-MB-231 (Korean Cell line Bank), a sulforhodamine B (SRB) assay which is a method of measuring cell viability was used for measuring apoptosis effects of Asperphenin.
as §1
(§3) Next, 80 μl of a 0.4% (w/v) SRB aqueous solution (Sigma Aldrich) containing 1% (v/v) acetic acid (DUKSAN) was added to each well, incubated at room temperature for 1 hour to stain cells therein, and the stained cells washed with water and dried. The cells were dissolved by adding 200 μl of 10 mM Tris (pH 10.0) (Sigma Aldrich) to each well, and then, the number of living cells was calculated by measuring the absorbance thereof at 515 nm. The concentration of the compound inhibiting cell growth to 50% based on the number of the living cells, i.e., 50% inhibition concentration (IC50) was calculated, and the results are shown in Table 3. Here, as a positive control, etoposide (Sigma Aldrich) was used.

Assay [3] relates to breast cancer cell line MDA-MB-231. In words: SRB cell viability assay, breast cancer cell line MDA-MB-231. It counts as cell-based. To be noted: Homo sapiens; MDA-MB-231, 72 hours; read-out: Cell growth inhibition concentration (IC50). As for the experimental part:
as §2, §1, §3

The test system of assay [4] is lung cancer cell line A549. In words: SRB cell viability assay, lung cancer cell line A549. It counts as cell-based. To be noted: Homo sapiens; A549, 72 hours; read-out: Cell growth inhibition concentration (IC50). As for the experimental part:
as §2, §1, §3

The subject of assay [5] is colon cancer cell line HCT116. In words: SRB cell viability assay, colon cancer cell line HCT116. To be noted: Homo sapiens, HCT-116. The assay is classed as cell-based. As for the experimental part:
as §2, §1, §3
From the colon cancer cell lines HCT116 (ATCC), HCT15 (Korean Cell Line Bank), LS174T (Korean Cell Line Bank), RKO(ATCC), and SW480(ATCC), cell growth inhibition concentrations (IC50, μM) were calculated as described in Example 2-1, and the results are shown in Table 4. Here, as a positive control, paclitaxel (Sigma Aldrich) was used.

For assay [6], the system named is cell cycle-related proteins in RKO cells. In words: Immunoblotting of cell cycle-related proteins. It counts as cell-based, human. As for the experimental part: As described in Example 2-3, cells were obtained in a way that Asperphenin B at the concentration of 0.625 μM, 1.25 μM, 2.5 μM, 5 μM, or 10 μM was added to the RKO cells, and then, cultured for 48 hours. However, cells were obtained in a way that Asperphenin B at the concentration of 5 μM was added to the RKO cells, and then, cultured for 0 to 48 hours. Then, proteins were obtained from the obtained cells.
Regarding the expression of the cell cycle-related proteins, anti-p-cyclin B1(Ser147) antibody (Cell Signaling Technology), anti-cyclin B1 antibody (Santa Cruz), anti-p-cdc2(Tyr15) antibody (Cell Signaling Technology), anti-cdc2 antibody (Santa Cruz), and anti-β-actin antibody (Santa Cruz) were used to perform immunoblotting thereon.
Background: A western blot detects proteins with antibodies after separation by electrophoresis.

Each structure is given as a SMILES string. Where two headings read alike, the source gives them in different places.

As for `CCCCCCCCC[C@@H](O)CC(=O)N[C@@H](CC(N)=O)C(=O)N[C@@H](CCC(N)=O)C(=O)N[C@H](CC(=O)c1cc(C)cc(O)c1C(=O)c1c(O)cccc1O)CC(C)C` [Asperphenin B], the IC50 in assay [1] stood at 1.84 µM; in assay [2] it was 11.7 µM; in assay [3] it was 6 µM; in assay [4] it was 41.8 µM; in assay [5] (HCT116, 72 hours, Table 3, read-out: Cell growth inhibition concentration (IC50)), 2.6 µM; in assay [5] (HCT116, Table 4, read-out: Growth inhibition value of cancer cell (IC50)), 4.05 µM. The “Expression of p-cdc2 (Tyr15) protein” value in assay [6] (5 μM, 0 to 48 hours, FIG. 5B) is listed as “increased in time-dependent manner”. In assay [6] (5 μM, 0 to 48 hours, FIG. 5B), the “Expression of p-cyclin B1 (Ser147)” value is on record as “highest at about 24 hours”. In addition, the “Expression of non-active p-cyclin B1 (Ser147) protein” value in assay [6] (48 hours, 2.5 μM, FIG. 5A) was “increased”. Also, the “Expression of p-cyclin B1 (Ser147) protein and cyclin B1 protein” value in assay [6] (48 hours, 5 μM and 10 μM, FIG. 5A) is reported as “decreased”. Further, in assay [6] (48 hours, 0.625-10 μM, FIG. 5A), the “Expression of non-active p-cdc2 (Tyr15) protein” value was “increased in a concentration-dependent manner”.
